# Results taken from patent publication US10583119B2, “Compounds, compositions and methods for making the same” (Signum Biosciences, Inc., priority 2008, dated 2020).
# Biological target: T1, protein phosphatase 2A specific methyltransferase (MTase) (Homo sapiens, UniProt Q9UIC8)
# T1 construct: His; made in house
# Experiment: PP2A methylation in 96-well plate format (methyltransferase activity)
# Assay type: biochemical
# Details: purified PP2A, MTase and [3H]-SAM; read-out: MT (IC50)
# Method: Purified PP2A, MTase and [^3H]-SAM, were incubated in reaction buffer at 37° C. At the end of the reaction, mixture was added onto the membranes of 96-well filter plate (Multiscreen™, Millipore). The membranes were then pre-wetted with 70% ethanol (50 μL/well) and then subsequently washed with water (2×200 μL/well). The reaction in each well was terminated and the proteins (5 μL-20 μL) were precipitated by adding 25% ice-cold TCA. The plate was kept on ice for 30 minutes to ensure completion of protein precipitation. Excess of the free SAM was then removed by washing with 5% cold TCA ([…]) and 70% cold ethanol (2×100 μL/well). Membranes were air-dried, radioactivity in each well was counted by TopCount^NXT scintillation counter (Packard) with 25 μL/well of Microsinct™ 20 (PerkinElmer).
# T1 sequence (Q9UIC8 whole entry): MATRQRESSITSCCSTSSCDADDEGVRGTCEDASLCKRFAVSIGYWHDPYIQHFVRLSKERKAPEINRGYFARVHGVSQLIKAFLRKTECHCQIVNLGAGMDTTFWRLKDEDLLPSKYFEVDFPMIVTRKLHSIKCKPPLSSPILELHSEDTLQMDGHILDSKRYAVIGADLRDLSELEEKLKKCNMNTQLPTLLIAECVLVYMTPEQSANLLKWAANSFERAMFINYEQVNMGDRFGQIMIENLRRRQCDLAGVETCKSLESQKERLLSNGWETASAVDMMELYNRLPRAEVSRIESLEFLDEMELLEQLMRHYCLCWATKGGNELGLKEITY
row,SMILES,IC50 [µM]
1,"CCCCCCCCCC(=O)NCCc1c[nH]c2ccc(O)cc12 [Compound I-77, N-(2-(5-hydroxy-1H-indol-3-yl)ethyl)decanamide]",> 100
2,"CCCCCCCCCCCCCCCCNC(=O)C(Cc1c[nH]c2ccccc12)NC(=O)OC(C)(C)C (centres unmarked) [Compound I-80, tert-butyl 1-(hexadecylamino)-3-(1H-indol-3-yl)-1-oxpopran-2-ylcarbamate]",< 10
3,"CCCCCCCCCCCCCCCCCCCC(=O)NCCc1c[nH]c2ccc(OC(C)=O)cc12 [Compound I-33, 3-(2-icosanamidoethyl)-1H-indol-5-yl acetate]",< 10
4,"CCCCCCCCCCCCCCCCNC(=O)NCCc1c[nH]c2ccc(O)cc12 [Compound I-30, 3-hexadecyl-1-[2-(5-hydroxy-1H-indol-3-yl)ethyl]urea]",10 to 100
5,"CCCCCCCCCCCCCCCCCCCC(=O)NCCc1c[nH]c2ccc(OC(=O)CCC(=O)O)cc12 [Compound I-32, 4-{[3-(2-icosanamidoethyl)-1H-indol-5-yl]oxy}-4-oxobutanoic acid]",< 10
6,"CCCCCCCCCCCCCCCCCCCC(=O)NCCc1c[nH]c2ccc(C)cc12 [Compound I-36, N-[2-(5-methyl-1H-indol-3-yl)ethyl]icosanamide]",< 10
7,"CCCCCCCCCCCCCCCCCCCC(=O)NCCc1c[nH]c2ccccc12 [Compound I-64, N-(2-(1H-indol-3-yl)ethyl) icosanamide]",< 10
8,"CCCCCCCCCCCCCCCC(=O)NCCc1c[nH]c2ccc(O)cc12 [Compound I-76, N-(2-(5-hydroxy-1H-indol-3-yl)emyl)palmitamide]",> 100
9,"CCCCCCC(O)CCCCCCCCCCC(=O)NCCc1c[nH]c2ccc(O)cc12 (centres unmarked) [Compound I-29, 12-hydroxy-N-[2-(5-hydroxy-1H-indol-3-yl)ethyl] octadecanamide]",10 to 100

# Biological target: T2, protein phosphatase specific protein methylesterase (MEase) (Homo sapiens, UniProt Q9Y570)
# T2 construct: made in house
# T2 sequence (Q9Y570 1-386): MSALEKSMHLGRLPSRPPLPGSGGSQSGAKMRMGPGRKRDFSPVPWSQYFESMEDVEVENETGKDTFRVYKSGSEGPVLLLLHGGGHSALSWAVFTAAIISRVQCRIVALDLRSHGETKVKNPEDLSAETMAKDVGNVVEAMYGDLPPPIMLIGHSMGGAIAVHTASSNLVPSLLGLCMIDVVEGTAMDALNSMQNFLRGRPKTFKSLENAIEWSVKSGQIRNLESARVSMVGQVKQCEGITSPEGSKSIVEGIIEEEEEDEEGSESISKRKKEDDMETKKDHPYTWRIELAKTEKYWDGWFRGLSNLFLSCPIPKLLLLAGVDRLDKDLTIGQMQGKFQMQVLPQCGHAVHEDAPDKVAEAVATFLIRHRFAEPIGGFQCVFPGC
# Experiment: PP2A demethylation with [3H]-SAM and purified proteins (methylesterase activity)
# Assay type: biochemical
# Details: purified methylated PP2A and MEase; read-out: ME (IC50)
# Method: PP2A (methylated and unmethylated) were eluted with 1.6 mL of Buffer A containing 350 mM NaCl. Fractions (0.2 mL each) were collected and the radioactivity in each fraction was measured using the scintillation counter (LS 6000SE, Beckman). Fractions with highest radioactivity were containing purified methylated PP2A were pooled with a total volume of 0.6 mL-0.8 mL. Purified methylated PP2A (50 nM-100 nM) was incubated with MEase (5 nM-20 nM) in 20 μl-50 μl reaction at room temperature for 30 minutes. The reaction was terminated by adding TCA (2 μl-6 μl) to a final concentration of 10%. Released [^3H]-methanol in supernatants was counted with scintillation counter (LS 6000SE, Beckman).
row,SMILES,IC50 [µM]
1,"CCCCCCCCCC(=O)NCCc1c[nH]c2ccc(O)cc12 [Compound I-77, N-(2-(5-hydroxy-1H-indol-3-yl)ethyl)decanamide]",> 100
2,"CCCCCCCCCCCCCCCCNC(=O)C(Cc1c[nH]c2ccccc12)NC(=O)OC(C)(C)C (centres unmarked) [Compound I-80, tert-butyl 1-(hexadecylamino)-3-(1H-indol-3-yl)-1-oxpopran-2-ylcarbamate]",< 10
3,"CCCCCCCCCCCCCCCCCCCC(=O)NCCc1c[nH]c2ccc(OC(C)=O)cc12 [Compound I-33, 3-(2-icosanamidoethyl)-1H-indol-5-yl acetate]",< 10
4,"CCCCCCCCCCCCCCCCNC(=O)NCCc1c[nH]c2ccc(O)cc12 [Compound I-30, 3-hexadecyl-1-[2-(5-hydroxy-1H-indol-3-yl)ethyl]urea]",< 10
5,"CCCCCCCCCCCCCCCCCCCC(=O)NCCc1c[nH]c2ccc(OC(=O)CCC(=O)O)cc12 [Compound I-32, 4-{[3-(2-icosanamidoethyl)-1H-indol-5-yl]oxy}-4-oxobutanoic acid]",< 10
6,"CCCCCCCCCCCCCCCCCCCC(=O)NCCc1c[nH]c2ccc(C)cc12 [Compound I-36, N-[2-(5-methyl-1H-indol-3-yl)ethyl]icosanamide]",10 to 100
7,"CCCCCCCCCCCCCCCCCCCC(=O)NCCc1c[nH]c2ccccc12 [Compound I-64, N-(2-(1H-indol-3-yl)ethyl) icosanamide]",< 10
8,"CCCCCCCCCCCCCCCC(=O)NCCc1c[nH]c2ccc(O)cc12 [Compound I-76, N-(2-(5-hydroxy-1H-indol-3-yl)emyl)palmitamide]",> 100
9,"CCCCCCC(O)CCCCCCCCCCC(=O)NCCc1c[nH]c2ccc(O)cc12 (centres unmarked) [Compound I-29, 12-hydroxy-N-[2-(5-hydroxy-1H-indol-3-yl)ethyl] octadecanamide]",10 to 100

# Biological target: T3, PP2A (Homo sapiens, UniProt P67775)
# T3 construct: made in house
# Experiment: Phosphatase activity of PP2A using pNPP as substrate
# Assay type: biochemical
# Details: un-methylated PP2A, non-protein substrate pNPP, absence of ME and MT
# Method: PP2A (10-200 nM) and pNPP (5-10 mM, Sigma) were mixed into 96-well plate (Fisher Scientific Inc.) in 50 μL of the buffer required. Reactions were performed at room temperature, and fully stopped by adding equal volume of 0.1 M EDTA. Production of p-nitrophenol […] was quantified by absorbance of reaction mixtures at 405 nm using the VMax® microplate reader (Molecular Devices).
# T3 sequence (P67775 whole entry): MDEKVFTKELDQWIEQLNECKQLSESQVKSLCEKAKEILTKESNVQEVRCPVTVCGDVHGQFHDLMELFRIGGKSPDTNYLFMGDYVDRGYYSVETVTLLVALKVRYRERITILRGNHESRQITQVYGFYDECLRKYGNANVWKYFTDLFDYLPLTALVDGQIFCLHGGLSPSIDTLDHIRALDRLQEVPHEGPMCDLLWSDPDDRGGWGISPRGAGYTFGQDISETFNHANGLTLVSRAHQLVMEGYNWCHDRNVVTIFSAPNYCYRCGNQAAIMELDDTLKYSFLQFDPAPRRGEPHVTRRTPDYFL
# T3 sequence (P30153 whole entry partner): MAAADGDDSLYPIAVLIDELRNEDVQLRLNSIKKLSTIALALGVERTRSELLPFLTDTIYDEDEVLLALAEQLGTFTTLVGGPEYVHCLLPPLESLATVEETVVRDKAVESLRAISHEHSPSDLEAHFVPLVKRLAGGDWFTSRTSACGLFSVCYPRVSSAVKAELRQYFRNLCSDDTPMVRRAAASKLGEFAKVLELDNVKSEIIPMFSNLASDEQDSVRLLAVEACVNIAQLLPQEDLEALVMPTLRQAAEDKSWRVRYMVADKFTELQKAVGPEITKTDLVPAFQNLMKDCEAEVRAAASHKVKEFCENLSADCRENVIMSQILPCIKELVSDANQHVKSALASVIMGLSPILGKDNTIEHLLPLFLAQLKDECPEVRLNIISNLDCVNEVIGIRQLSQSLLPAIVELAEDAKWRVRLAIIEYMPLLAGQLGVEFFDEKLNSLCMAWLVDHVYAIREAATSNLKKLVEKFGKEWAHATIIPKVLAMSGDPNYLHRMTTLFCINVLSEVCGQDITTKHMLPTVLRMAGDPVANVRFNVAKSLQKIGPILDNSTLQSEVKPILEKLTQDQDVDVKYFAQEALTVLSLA
row,SMILES,IC50 [µM]
1,"CCCCCCCCCC(=O)NCCc1c[nH]c2ccc(O)cc12 [Compound I-77, N-(2-(5-hydroxy-1H-indol-3-yl)ethyl)decanamide]",> 100
2,"CCCCCCCCCCCCCCCCNC(=O)C(Cc1c[nH]c2ccccc12)NC(=O)OC(C)(C)C (centres unmarked) [Compound I-80, tert-butyl 1-(hexadecylamino)-3-(1H-indol-3-yl)-1-oxpopran-2-ylcarbamate]",10 to 100
3,"CCCCCCCCCCCCCCCCCCCC(=O)NCCc1c[nH]c2ccc(OC(C)=O)cc12 [Compound I-33, 3-(2-icosanamidoethyl)-1H-indol-5-yl acetate]",10 to 100
4,"CCCCCCCCCCCCCCCCNC(=O)NCCc1c[nH]c2ccc(O)cc12 [Compound I-30, 3-hexadecyl-1-[2-(5-hydroxy-1H-indol-3-yl)ethyl]urea]",10 to 100
5,"CCCCCCCCCCCCCCCCCCCC(=O)NCCc1c[nH]c2ccc(OC(=O)CCC(=O)O)cc12 [Compound I-32, 4-{[3-(2-icosanamidoethyl)-1H-indol-5-yl]oxy}-4-oxobutanoic acid]",10 to 100
6,"CCCCCCCCCCCCCCCCCCCC(=O)NCCc1c[nH]c2ccc(C)cc12 [Compound I-36, N-[2-(5-methyl-1H-indol-3-yl)ethyl]icosanamide]",10 to 100
7,"CCCCCCCCCCCCCCCCCCCC(=O)NCCc1c[nH]c2ccccc12 [Compound I-64, N-(2-(1H-indol-3-yl)ethyl) icosanamide]",> 100
8,"CCCCCCCCCCCCCCCC(=O)NCCc1c[nH]c2ccc(O)cc12 [Compound I-76, N-(2-(5-hydroxy-1H-indol-3-yl)emyl)palmitamide]",> 100
9,"CCCCCCC(O)CCCCCCCCCCC(=O)NCCc1c[nH]c2ccc(O)cc12 (centres unmarked) [Compound I-29, 12-hydroxy-N-[2-(5-hydroxy-1H-indol-3-yl)ethyl] octadecanamide]",< 10

# Biological target: T3, PP2A
# Experiment: Phosphatase activity of PP2A using phosphorylase a as substrate
# Assay type: biochemical
# Details: un-methylated PP2A, protein substrate phosphorylase a, absence of ME and MT
# Method: After the reaction, proteins were precipitated by 50% (NH4)2SO4 (final concentration) twice, and collected by centrifugation. The pellet was re-dissolved and dialyzed in a buffer containing 50 mM Tris-HCl (pH6.9) and ImM DTT for 2×2 L at 4° C. overnight. Phosphorylase a (phospho-phosphorylase b) crystallized during the dialysis. The dialysate was centrifuged 14,000 r.p.m at 4° C. for 30 minutes, the supernatant was removed and purified ^32P-labelled phosphorylase a was re-dissolved in +50% glycerol, and stored at −20° C.
# To measure PP2A's phosphatase activity, PP2A (5-20 nM) was incubated with phosphorylase a (5-10 μM) at 37° C. 10% TCA (final concentration) and was added to the reaction to precipitate proteins. Supernatant that contains free ^32P-phosphate group was added into scintillation counting solution (Ecoscint, National Diagnostics), and counted by scintillation counter (LS 6000SE, Beckman).
row,SMILES,IC50 [µM]
1,"CCCCCCCCCCCCCCCCNC(=O)NCCc1c[nH]c2ccc(O)cc12 [Compound I-30, 3-hexadecyl-1-[2-(5-hydroxy-1H-indol-3-yl)ethyl]urea]",10 to 100
2,"CCCCCCCCCCCCCCCCCCCC(=O)NCCc1c[nH]c2ccc(OC(=O)CCC(=O)O)cc12 [Compound I-32, 4-{[3-(2-icosanamidoethyl)-1H-indol-5-yl]oxy}-4-oxobutanoic acid]",10 to 100
3,"CCCCCCCCCCCCCCCCCCCC(=O)NCCc1c[nH]c2ccc(C)cc12 [Compound I-36, N-[2-(5-methyl-1H-indol-3-yl)ethyl]icosanamide]",> 100
4,"CCCCCCCCCCCCCCCCCCCC(=O)NCCc1c[nH]c2ccccc12 [Compound I-64, N-(2-(1H-indol-3-yl)ethyl) icosanamide]",10 to 100
5,"CCCCCCC(O)CCCCCCCCCCC(=O)NCCc1c[nH]c2ccc(O)cc12 (centres unmarked) [Compound I-29, 12-hydroxy-N-[2-(5-hydroxy-1H-indol-3-yl)ethyl] octadecanamide]",> 100
